Target: Uracil nucleotide/cysteinyl leukotriene receptor (Homo sapiens, UniProt Q13304)
Test: Inhibition of full length GPR17 (unknown origin) stably expressed in human 1321N1 cells incubated for 15 mins by cAMP based HTRF assay
Assay type: functional, cell-based

Sequence of Uracil nucleotide/cysteinyl leukotriene receptor (Q13304 whole entry): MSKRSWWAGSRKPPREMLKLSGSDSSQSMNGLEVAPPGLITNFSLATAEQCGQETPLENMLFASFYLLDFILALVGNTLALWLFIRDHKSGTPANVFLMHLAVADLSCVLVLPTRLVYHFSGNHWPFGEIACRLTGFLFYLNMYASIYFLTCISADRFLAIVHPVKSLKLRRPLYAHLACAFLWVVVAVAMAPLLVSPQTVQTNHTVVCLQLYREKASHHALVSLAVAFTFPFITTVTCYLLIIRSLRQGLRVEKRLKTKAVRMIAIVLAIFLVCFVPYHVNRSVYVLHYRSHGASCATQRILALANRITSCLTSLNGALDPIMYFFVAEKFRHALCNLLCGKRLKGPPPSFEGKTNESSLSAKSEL

SMILES | IC50 [µM]
CCCn1ncc(NS(=O)(=O)c2c[nH]c3cc(Cl)ccc23)c1C#N | < 0.1
Cc1onc(NS(=O)(=O)c2c[nH]c3cc(Cl)c(Cl)cc23)c1Cl | < 0.1
O=S(=O)(Nc1ncc(C(F)(F)F)s1)c1c[nH]c2cc(Cl)ccc12 | < 0.1

The next lines start with the values.

IC50 [µM] | SMILES
< 0.1 | N#Cc1c(NS(=O)(=O)c2c[nH]c3cc(Cl)ccc23)cnn1CCCl
< 0.1 | N#Cc1c(NS(=O)(=O)c2c[nH]c3cc(Cl)ccc23)cnn1CCC(F)(F)F
< 0.1 | Cc1snc(NS(=O)(=O)c2c[nH]c3cc(Cl)ccc23)c1Cl

Reference: ChEMBL document CHEMBL6134918, “Novel Indole and Pyrrolopyridine Derivatives as GPR17 Modulators for Treating Multiple Sclerosis” (ACS Med Chem Lett, 2025)
